Assay results published in PubChem BioAssay (NCI).
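Method: 48-hour compound exposure of cells in 96-well plates, five concentrations, linear interpolation of endpoints. At the GI50, growth is halved. Definition used: TGI = concentration required for complete inhibition of growth.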

Experiments:
Assay in all cases: growth of human tumour cells (NCI), 48 h
786-0 renal = test system: 786-0 renal
A498 renal = test system: A498 renal
A549 NSCLC = test system: A549 NSCLC
ACHN renal = test system: ACHN renal
BT-549 breast = test system: BT-549 breast
CAKI-1 renal = test system: CAKI-1 renal
CCRF-CEM leukemia = test system: CCRF-CEM leukemia
COLO 205 colon = test system: COLO 205 colon
DU-145 prostate = test system: DU-145 prostate
EKVX NSCLC = test system: EKVX NSCLC
HCC-2998 colon = test system: HCC-2998 colon
HCT-116 colon = test system: HCT-116 colon
HCT-15 colon = test system: HCT-15 colon
HL-60(TB) leukemia = test system: HL-60(TB) leukemia
HOP-62 NSCLC = test system: HOP-62 NSCLC
HOP-92 NSCLC = test system: HOP-92 NSCLC
IGROV1 ovarian = test system: IGROV1 ovarian
KM12 colon = test system: KM12 colon
LOX IMVI melanoma = test system: LOX IMVI melanoma
M14 melanoma = test system: M14 melanoma
MCF7 breast = test system: MCF7 breast
MDA-MB-435 = test system: MDA-MB-435
NCI-H226 lung = test system: NCI-H226 lung
NCI-H23 lung = test system: NCI-H23 lung
NCI-H460 lung = test system: NCI-H460 lung
NCI/ADR-RES ovarian = test system: NCI/ADR-RES ovarian
OVCAR-3 ovarian = test system: OVCAR-3 ovarian
OVCAR-4 ovarian = test system: OVCAR-4 ovarian
OVCAR-5 ovarian = test system: OVCAR-5 ovarian
OVCAR-8 ovarian = test system: OVCAR-8 ovarian
PC-3 prostate = test system: PC-3 prostate
RPMI-8226 leukemia = test system: RPMI-8226 leukemia
RXF 393 renal = test system: RXF 393 renal
SF-295 CNS = test system: SF-295 CNS
SK-MEL-2 melanoma = test system: SK-MEL-2 melanoma
SK-MEL-28 melanoma = test system: SK-MEL-28 melanoma
SK-MEL-5 melanoma = test system: SK-MEL-5 melanoma
SK-OV-3 ovarian = test system: SK-OV-3 ovarian
SN12C renal = test system: SN12C renal
SNB-19 CNS = test system: SNB-19 CNS
SNB-75 CNS = test system: SNB-75 CNS
SW-620 colon = test system: SW-620 colon
T-47D breast = test system: T-47D breast
TK-10 renal = test system: TK-10 renal
U251 CNS = test system: U251 CNS
UACC-257 melanoma = test system: UACC-257 melanoma
UACC-62 melanoma = test system: UACC-62 melanoma
UO-31 renal = test system: UO-31 renal
HT29 colon = test system: HT29 colon
NCI-H522 lung = test system: NCI-H522 lung
SF-268 CNS = test system: SF-268 CNS
MALME-3M melanoma = test system: MALME-3M melanoma
SF-539 CNS = test system: SF-539 CNS

COc1ccc(-n2sc3ncc(-c4ccccc4)cc3c2=O)cc1
TGI (786-0 renal): 39.3 µM
TGI (A498 renal): > 100 µM
TGI (A549 NSCLC): > 100 µM
TGI (ACHN renal): 48.3 µM
TGI (BT-549 breast): > 100 µM
TGI (CAKI-1 renal): 67.3 µM
TGI (CCRF-CEM leukemia): > 100 µM
TGI (COLO 205 colon): > 100 µM
TGI (DU-145 prostate): > 100 µM
TGI (EKVX NSCLC): > 100 µM
TGI (HCC-2998 colon): > 100 µM
TGI (HCT-116 colon): 57.8 µM
TGI (HCT-15 colon): > 100 µM
TGI (HL-60(TB) leukemia): > 100 µM
TGI (HOP-62 NSCLC): > 100 µM
TGI (HOP-92 NSCLC): > 100 µM
TGI (IGROV1 ovarian): 78.8 µM
TGI (KM12 colon): > 100 µM
TGI (LOX IMVI melanoma): > 100 µM
TGI (M14 melanoma): > 100 µM
TGI (MCF7 breast): > 100 µM
TGI (MDA-MB-435): > 100 µM
TGI (NCI-H226 lung): > 100 µM
TGI (NCI-H23 lung): 53.3 µM
TGI (NCI-H460 lung): > 100 µM
TGI (NCI/ADR-RES ovarian): > 100 µM
TGI (OVCAR-3 ovarian): 47.2 µM
TGI (OVCAR-4 ovarian): 45.7 µM
TGI (OVCAR-5 ovarian): 74 µM
TGI (OVCAR-8 ovarian): > 100 µM
TGI (PC-3 prostate): > 100 µM
TGI (RPMI-8226 leukemia): 66.8 µM
TGI (RXF 393 renal): > 100 µM
TGI (SF-295 CNS): > 100 µM
TGI (SK-MEL-2 melanoma): > 100 µM
TGI (SK-MEL-28 melanoma): > 100 µM
TGI (SK-MEL-5 melanoma): > 100 µM
TGI (SK-OV-3 ovarian): > 100 µM
TGI (SN12C renal): 80.2 µM
TGI (SNB-19 CNS): 80.8 µM
TGI (SNB-75 CNS): > 100 µM
TGI (SW-620 colon): > 100 µM
TGI (T-47D breast): > 100 µM
TGI (TK-10 renal): > 100 µM
TGI (U251 CNS): > 100 µM
TGI (UACC-257 melanoma): > 100 µM
TGI (UACC-62 melanoma): > 100 µM
TGI (UO-31 renal): 49.7 µM

CN(CCNC(=O)c1[nH]nc2c1ccc1ccccc12)CCNC(=O)c1[nH]nc2c1ccc1ccccc12
TGI (A498 renal): 67.7 µM
TGI (BT-549 breast): 53.2 µM
TGI (CAKI-1 renal): > 76.2 µM
TGI (CCRF-CEM leukemia): 5 µM
TGI (COLO 205 colon): 2.74 µM
TGI (DU-145 prostate): 10.2 µM
TGI (HCC-2998 colon): 3.61 µM
TGI (HCT-15 colon): 46.7 µM
TGI (HL-60(TB) leukemia): 5.95 µM
TGI (HOP-92 NSCLC): 18.5 µM
TGI (HT29 colon): 3.27 µM
TGI (KM12 colon): 5.3 µM
TGI (LOX IMVI melanoma): 3.33 µM
TGI (M14 melanoma): 3.49 µM
TGI (MCF7 breast): 3.29 µM
TGI (NCI-H226 lung): 46.5 µM
TGI (NCI-H23 lung): 4.09 µM
TGI (NCI-H460 lung): 5.11 µM
TGI (NCI-H522 lung): 3.9 µM
TGI (NCI/ADR-RES ovarian): > 100 µM
TGI (OVCAR-3 ovarian): 6.26 µM
TGI (OVCAR-5 ovarian): 3.71 µM
TGI (PC-3 prostate): 6.8 µM
TGI (SF-268 CNS): 4.84 µM
TGI (SK-MEL-2 melanoma): 37.9 µM
TGI (SK-MEL-5 melanoma): 3.24 µM
TGI (SK-OV-3 ovarian): 30.1 µM
TGI (T-47D breast): 5.03 µM
TGI (UACC-257 melanoma): 56.7 µM
TGI (UO-31 renal): 29.1 µM

FC(F)(F)c1cc(Nc2ccc3c(OCCCN4CCOCC4)cccc3n2)ccc1Cl
GI50 (A498 renal): 3.12 µM
TGI (A498 renal): 48.3 µM
GI50 (ACHN renal): 2.98 µM
TGI (ACHN renal): 10.3 µM
GI50 (BT-549 breast): 2.43 µM
TGI (BT-549 breast): 8.76 µM
GI50 (DU-145 prostate): 2.78 µM
TGI (DU-145 prostate): > 100 µM
GI50 (HCT-116 colon): 2.07 µM
TGI (HCT-116 colon): 4.55 µM
GI50 (IGROV1 ovarian): 3.96 µM
TGI (IGROV1 ovarian): 37.8 µM
GI50 (MALME-3M melanoma): 1.69 µM
TGI (MALME-3M melanoma): 4.11 µM
GI50 (NCI-H226 lung): 3.54 µM
TGI (NCI-H226 lung): > 100 µM
GI50 (NCI/ADR-RES ovarian): 3.16 µM
TGI (NCI/ADR-RES ovarian): > 100 µM
GI50 (OVCAR-4 ovarian): 3.07 µM
TGI (OVCAR-4 ovarian): > 100 µM
GI50 (OVCAR-5 ovarian): 2.36 µM
TGI (OVCAR-5 ovarian): 6.24 µM
GI50 (OVCAR-8 ovarian): 4.33 µM
TGI (OVCAR-8 ovarian): > 100 µM
GI50 (PC-3 prostate): 2.26 µM
TGI (PC-3 prostate): > 100 µM
GI50 (SF-539 CNS): 1.9 µM
TGI (SF-539 CNS): 4.01 µM
GI50 (SN12C renal): 3.35 µM
TGI (SN12C renal): 16.8 µM
GI50 (SNB-75 CNS): 1.89 µM
TGI (SNB-75 CNS): 6.2 µM
GI50 (TK-10 renal): 3.49 µM
TGI (TK-10 renal): > 100 µM
GI50 (UACC-62 melanoma): 2.05 µM
TGI (UACC-62 melanoma): 4.16 µM
GI50 (UO-31 renal): 1.63 µM
TGI (UO-31 renal): 4.29 µM
